Measured values as given in PubChem BioAssay (NCI).
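A five-concentration, 48-hour dose response in 96-well plates underlies each endpoint, interpolated linearly between surrounding concentrations. GI50: concentration for 50% inhibition of growth. At the TGI there is no net growth.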

Assays:
Assay in all cases: NCI anticancer screen, dose series, 48 h
NCI-H226 lung = test system: NCI-H226 lung
KM12 colon = test system: KM12 colon
RPMI-8226 leukemia = test system: RPMI-8226 leukemia
EKVX NSCLC = test system: EKVX NSCLC
UACC-62 melanoma = test system: UACC-62 melanoma
NCI-H522 lung = test system: NCI-H522 lung
HOP-92 NSCLC = test system: HOP-92 NSCLC
CCRF-CEM leukemia = test system: CCRF-CEM leukemia
SK-MEL-5 melanoma = test system: SK-MEL-5 melanoma
NCI-H460 lung = test system: NCI-H460 lung

SMILES | GI50 (NCI-H226 lung) [µM] | TGI (NCI-H226 lung) [µM] | GI50 (KM12 colon) [µM] | TGI (KM12 colon) [µM] | GI50 (RPMI-8226 leukemia) [µM] | TGI (RPMI-8226 leukemia) [µM] | GI50 (EKVX NSCLC) [µM] | TGI (EKVX NSCLC) [µM] | GI50 (UACC-62 melanoma) [µM] | TGI (UACC-62 melanoma) [µM] | GI50 (NCI-H522 lung) [µM] | TGI (NCI-H522 lung) [µM] | GI50 (HOP-92 NSCLC) [µM] | TGI (HOP-92 NSCLC) [µM] | GI50 (CCRF-CEM leukemia) [µM] | TGI (CCRF-CEM leukemia) [µM] | GI50 (SK-MEL-5 melanoma) [µM] | TGI (SK-MEL-5 melanoma) [µM] | GI50 (NCI-H460 lung) [µM] | TGI (NCI-H460 lung) [µM]
CC(=O)[CH-]C(C)=O.CC(=O)[CH-]C(C)=O.N=CC=N.[Sn+2] | 9.9 | 23 | 2.94 | 8.49 | 1.48 | 4.38 | 6.42 | 19.4 | 2.17 | 5.85 | 0.911 | 2.13 | 1.74 | 3.79 | 1.51 | 13.3 | 5.46 | 16.9 | 3.9 | 10.8
C=CC(=O)Nc1cccc(Nc2nc(Nc3ccc(OCCOC)cc3)ncc2F)c1 | 0.914 | 11.6 | 3.43 | 15.6 | 3.28 | 23.3 | 3.16 | 15.6 | 1.93 | 12.9 | 1.78 | 8.14 | 0.928 | 5.34 | 4.06 | > 63.1 | 6.18 | 20.2 | 2.28 | 14.5
COc1ccc(C2C(C#N)=C(N)OC3=C2CCCc2ccc(F)cc23)cc1OC (configuration not stated) | 19.6 | 43.9 | 19.1 | 43.6 | 7.46 | 22.8 | 10.1 | 37.5 | 21.6 | 47 | 17.8 | 37.6 | 17.1 | 42.4 |  | 0.0686 | 14.7 | 27.9 | 20.9 | 54.4
O=P(O)(O)C(O)(Cn1ccnc1)P(=O)(O)O | > 75 | > 100 | > 79.3 | > 100 | 15.6 | > 100 | > 87.9 | > 100 | > 65.2 | > 100 | > 100 | > 100 | > 41.7 | > 100 | > 100 | > 100 | > 43 | > 78 | > 100 | > 100
Cc1ccc([N+](=O)[O-])c2c(NCCCN(C)C)ccnc12 |  | > 100 |  | > 100 |  | > 100 |  | > 100 |  |  |  | 55.8 |  | > 100 |  | > 100 |  | 72.8 |  | 76.1
COc1ccc(C(=O)C(C(=O)CCC(=O)Nc2cccc(C(F)(F)F)c2)c2ccccc2)cc1 (configuration not stated) |  | > 100 |  | > 100 |  | > 100 |  | > 100 |  | > 100 |  | > 100 |  | > 100 |  | > 100 |  | > 100 |  | > 100
COc1ccc(NC2=C(Br)C(=O)C(C)=C(C)C2=O)cc1 | 13 | 27.6 | 5.02 | 19 | 2.21 | 5.01 | 1.69 | 3.12 | 7.74 | 20.7 | 12.7 | 31.8 | 1.55 | 3.08 | 2.33 | > 100 | 13.1 | 26 | 18.8 | 42.6
CC1CCCC(C(=O)/C(=C/c2cccc(Cl)c2)C(=O)C(=O)O)C1 (configuration not stated) |  | > 100 |  | 30.6 |  | 38 |  | > 100 |  | > 100 |  | 24.7 |  | > 100 |  | 48.3 |  | > 100 |  | > 100
NC(N)=N/N=C/c1c(-c2ccccn2)nc2sc(Cl)cn12 |  |  | 8.05 | 15.1 | 11.5 | 29 | 8.95 | 16.1 | 8.01 | 14.9 | 7.86 | 15.3 | 10 | 21.3 |  |  | 8.47 | 15.4 | 10.2 | 50
Clc1cc(Cl)c2c(Cl)cc(Cl)c3c2c1N=S=N3 |  | > 100 |  | > 100 |  | > 100 |  | > 100 |  | > 100 |  | > 100 |  | > 100 |  | > 100 |  | > 100 |  | 
COc1ccc(-c2cc(-c3cc(Cl)ccc3Cl)nc3nc(=S)[nH]c(N)c23)cc1 |  |  | 26.8 | > 100 | 14.3 | > 100 | 28.5 | > 100 | 6.94 | > 100 | 28.2 | > 100 | 11.8 | > 100 | 26.6 | > 100 | 18.2 | 94.6 | 47.6 | > 100
COc1cc(-c2cn(C)c(=O)c(C)c2C)cc(OC)c1CN1CC[C@H](N2CCN(c3ccc(N[C@H]4CCC(=O)NC4=O)cc3F)CC2)C(F)(F)C1 | 13.7 | 29.1 | 15.1 | 30.2 | 6.43 | > 100 | 12.7 | 34.9 |  |  | 8.09 | 24.1 | 8.81 | 24.8 | 19.4 | > 100 | 4.64 | 18.8 | 15.5 | 32.4
C=C1CC(COc2cc(Cl)nc(N)n2)C1 | 42.5 |  | 25.5 |  | 21.7 | 60.8 | 25.6 |  |  |  | 27.6 |  | 23.1 | 71.5 | 69.6 |  | 44.4 |  | 55.6 | 
CC(C)(C)C1(O)Cc2ccccc2C(=O)O1 (configuration not stated) |  | > 100 |  | > 100 |  |  |  | > 100 |  | > 100 |  | > 100 |  | > 100 |  | > 100 |  | > 100 |  | > 100
O=C(Nc1ccc(S(=O)(=O)N[C@@H](C(=O)O)c2ccccc2)cc1)c1ccc(F)cc1 |  |  |  | > 100 |  | > 100 |  | > 100 |  | > 100 |  | > 100 |  | > 100 |  | > 100 |  | > 100 |  | > 100
Oc1c(Br)cc(CN(Cc2cc(Br)c(O)c(Br)c2)C2CCCCC2)cc1Br |  | > 100 |  | > 100 |  | > 100 |  | > 100 |  | > 100 |  | > 100 |  | > 100 |  | > 100 |  | > 100 |  | 
